Patent US20240083839A1, “COMPOSITIONS AND METHODS FOR TREATING NEURODEGENERATIVE DISEASES AND DISORDERS” (The Regents of the University of California, priority 2020, published 2024)
Structures can show the parent of a compound that is named as a salt. Where two headings read alike, the source gives them in different places.

Experiments:
[1] = system: SirT1 levels in N2a-E4 cells; test: SirT1 levels by AlphaLISA in ApoE4-transfected N2a cells; assay type: cell-based, murine
Protocol: Prompted by the emerging importance of the associations between ApoE4 and the expression/protein levels of SirT1, high-throughput screening (HTS) of the UCLA compound library was performed using AlphaLISA to detect SirT1 levels in murine neuroblastoma cells stably transfected with ApoE4 (E4-N2a) to identify SirT1 enhancers. […] In the in vivo study, mice were treated orally at 40 mkd (20 mg/kg BID) for 56 days and underwent assessment of cognition in the Novel Object Recognition (NOR) testing paradigm. […] The performance of A03-treated E4-AD mice (FIG. 5A) improved to level of non-transgenic vehicle-treated mice.
For PAMPA in this document: unit not given here.

Row | SMILES | PAMPA (PAMPA) | SirT1 SOμM [1] | SirT1 SμM [1] | PAMPA (PAMPA; PAMPA)
1 | CC(C)C(N)C(=O)OC(C)(C)Cc1ccc(Cl)cc1 (stereo not drawn) [MP-08, 1-(4-chlorophenyl)-2-methylpropan-2-yl 2-amino-3-methylbutanoate] | 4.65 | C (C = 100% increase versus control) | A (A >20%) | –
2 | C[C@@H](N)C(=O)NC(C)(C)Cc1cc(F)cc(F)c1 [MP-44, (R)-2-amino-N-(1-(3,5-difluorophenyl)-2-methylpropan-2-yl)propanamide] | 1.57 | A (A >20%) | a (a <250%) | –
3 | C[C@H](N)C(=O)NC(C)(Cc1ccc(Cl)cc1)c1ccc(Br)cc1 (stereo partly drawn) [MP-30] | 2.89 | A, A (A >20%) | A, A (A >20%) | –
4 | C[C@@H](N)C(=O)OC(C)(C)Cc1ccc(Cl)cc1 [MP-42, 1-(4-chlorophenyl)-2-methylpropan-2-yl D-alaninate] | – | a, a (a <250%) | a, a (a <250%) | 3.9
5 | C[C@H](NC(=O)OC(C)(C)C)C(=O)NC(C)(C)Cc1ccc(C(F)(F)F)cc1 [MP-77, (S)-tert-butyl (1-((2-methyl-1-(4-(trifluoromethyl)phenyl)propan-2-yl)amino)-1-oxopropan-2-yl)carbamate] | 1.61 | a, a (a <250%) | a, a (a <250%) | –
6 | C[C@H](N)C(=O)NC(C)(C)Cc1ccc(C(F)(F)F)cc1 [MP-78, (S)-2-amino-N-(2-methyl-1-(4-(trifluoromethyl)phenyl)propan-2-yl)propanamide hydrochloride] | 1.93 | B (B >50%) | A (A >20%) | –
7 | COC(=O)N[C@H]1Cc2ccccc2CNC1=O [MP-70] | 0.59 | A, A (A >20%) | A, A (A >20%) | –
8 | C[C@H](N)C(=O)NC(C)(C)Cc1ccc(CC(F)(F)F)cc1 [MP-58, (S)-2-amino-N-(2-methyl-1-(4-(2,2,2-trifluoroethyl)phenyl)propan-2-yl)propanamide] | 1.28 | C (C = 100% increase versus control) | A (A >20%) | –
9 | CC(C)(Cc1ccc(Cl)cc1)OC(=O)CN [MP-07, 1-(4-chlorophenyl)-2-methylpropan-2-yl 2-aminoethanoate] | 4.15 | B (B >50%) | A (A >20%) | –
10 | O=C(N[C@H]1Cc2ccccc2CNC1=O)OCC1c2ccccc2-c2ccccc21 [MP-74, (S)-(9H-fluoren-9-yl)methyl (3-oxo-2,3,4,5-tetrahydro-1H-benzo[c]azepin-4-yl)carbamate] | 1.55 | a, a (a <250%) | a, a (a <250%) | –
11 | CC(C)(Cc1ccc(Cl)cc1)OC(=O)C(N)CCCCN (stereo not drawn) [MP-13, 1-(4-chlorophenyl)-2-methylpropan-2-yl 2,6-diaminohexanoate] | 6.49 | C (C = 100% increase versus control) | A (A >20%) | –
12 | CC(N)C(=O)OC(C)(C)Cc1ccccc1 (stereo not drawn) [MP-02, 2-methyl-1-phenylpropan-2-yl 2-aminopropanoate] | 3.17 | A, A (A >20%) | A, A (A >20%) | –
13 | C[C@H](N)C(=O)OC1(Cc2ccc(Cl)cc2)CCCC1 [MP-34, 1-(4-chlorobenzyl)cyclopentyl alaninate] | 4.92 | A, A (A >20%) | A, A (A >20%) | –
14 | O=C(N[C@H]1Cc2ccccc2CNC1=O)OCc1ccccc1 [MP-73, (S)-benzyl (3-oxo-2,3,4,5-tetrahydro-1H-benzo[c]azepin-4-yl)carbamate] | 0.68 | a, a (a <250%) | a, a (a <250%) | –
15 | C[C@H](N)C(=O)Nc1ccccc1-c1ccc(F)cc1 [MP-57, (S)-2-amino-N-(4′-fluoro-[1,1′-biphenyl]-2-yl)propanamide] | 1.6(2) | B (B >50%) | A (A >20%) | –
16 | C[C@H](N)C(=O)NC(C)(C)Cc1cccc(C(F)(F)F)c1 [MP-39, (S)-2-amino-N-(2-methyl-1-(3-(trifluoromethyl)phenyl)propan-2-yl)propanamide] | 1.7 | A, A (A >20%) | A, A (A >20%) | –
17 | CC(C)(Cc1ccc(Cl)cc1)OC(=O)C1CCCN1 (stereo not drawn) [MP-20, 1-(4-chlorophenyl)-2-methylpropan-2-yl pyrrolidine-2-carboxylate] | 2.66 | B (B >50%) | A (A >20%) | –
18 | CC(N)C(=O)OC(C)(C)Cc1ccc(C(F)(F)F)cc1.Cl (stereo not drawn) [MP-76, 2-methyl-1-(4-(trifluoromethyl)phenyl)propan-2-yl 2-aminopropanoate hydrochloride] | 2.71 | A, A (A >20%) | A, A (A >20%) | –
19 | C[C@H](N)C(=O)NC(C)(C)Cc1ccc(Br)cc1 [MP-47, (S)-2-amino-N-(1-(4-bromophenyl)-2-methylpropan-2-yl)propanamide] | 1.76 | A (A >20%) | B (B >50%) | –
20 | C#Cc1ccc(CC(C)(C)OC(=O)[C@H](C)N)cc1 [MP-50, 1-(4-ethynylphenyl)-2-methylpropan-2-yl alaninate] | 3.36 | B (B >50%) | A (A >20%) | –
21 | CC(N)C(=O)OC(C)(C)Cc1ccc(F)c(F)c1 (stereo not drawn) [MP-03, 1-(3,4-difluorophenyl)-2-methylpropan-2-yl 2-aminopropanoate] | 2.37 | C (C = 100% increase versus control) | B (B >50%) | –
22 | CNC(C)C(=O)OC(C)(C)Cc1ccc(Cl)cc1 (stereo not drawn) [MP-23, 1-(4-chlorophenyl)-2-methylpropan-2-yl 2-(methylamino)propanoate] | 3.03 | a, a (a <250%) | a, a (a <250%) | –
23 | C[C@@H](N)C(=O)NC(C)(Cc1ccc(F)cc1)Cc1ccc(F)cc1 [MP-52, (R)-2-amino-N-(1,3-bis(4-fluorophenyl)-2-methylpropan-2-yl)propanamide] | 1 | A, A (A >20%) | A, A (A >20%) | –
24 | C#Cc1ccc(CC(C)(C)NC(=O)[C@H](C)N)cc1 [MP-59, (S)-2-amino-N-(1-(4-ethynylphenyl)-2-methylpropan-2-yl)propanamide] | 2.49 | A, A (A >20%) | A, A (A >20%) | –
25 | CC(C)CC(N)C(=O)OC(C)(C)Cc1ccc(Cl)cc1 (stereo not drawn) [MP-05, 1-(4-chlorophenyl)-2-methylpropan-2-yl 2-amino-4-methylpentanoate] | 5.63 | B (B >50%) | A (A >20%) | –
26 | C[C@H](N)C(=O)OC1(Cc2ccc(Cl)cc2)CCNC1 (single isomer, unassigned) [MP-33, 3-(4-chlorobenzyl)pyrrolidin-3-yl L-alaninate] | 0.7 | C (C = 100% increase versus control) | A (A >20%) | –
27 | CC(C)(Cc1ccc(F)c(F)c1)NC(=O)[C@@H](N)c1ccccc1 [MP-37] | – | a (a <250%) | A (A >20%) | 1.81
28 | CC(N)C(=O)OC1(Cc2ccc(Cl)cc2)CCC1 (stereo not drawn) [MP-09, 1-(4-chlorobenzyl)cyclobutyl 2-aminopropanoate] | 4.16 | A, A (A >20%) | A, A (A >20%) | –
